Results from patent US4931463A, “Oxetanones” (Hoffmann-La Roche Inc., priority 1987, dated 1990).
Like-named read-outs stand apart in the source and are kept apart here.

Legend:
pig pancreas lipase = target: T1, pig pancreas lipase (Sus scrofa, UniProt P00591); experiment: Inhibition of pancreas lipase, titrimetric registration of oleic acid liberated in the cleavage of triolein; type: biochemical
T1 sequence (P00591 1-450): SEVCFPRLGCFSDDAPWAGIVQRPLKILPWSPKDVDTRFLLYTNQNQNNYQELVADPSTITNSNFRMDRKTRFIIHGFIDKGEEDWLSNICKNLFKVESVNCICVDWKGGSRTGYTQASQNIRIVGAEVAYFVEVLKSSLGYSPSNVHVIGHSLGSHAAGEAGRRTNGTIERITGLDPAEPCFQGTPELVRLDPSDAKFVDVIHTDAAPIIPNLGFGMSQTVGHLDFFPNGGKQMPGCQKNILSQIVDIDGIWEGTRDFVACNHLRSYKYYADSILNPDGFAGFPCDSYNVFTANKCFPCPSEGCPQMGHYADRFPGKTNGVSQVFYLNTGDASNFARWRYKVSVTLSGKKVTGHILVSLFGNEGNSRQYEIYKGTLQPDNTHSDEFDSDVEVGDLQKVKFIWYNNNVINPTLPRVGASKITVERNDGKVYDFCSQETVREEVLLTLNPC
Method: To an emulsion which contains 1 mM of taurodeoxycholate, 9 mM of taurocholeate, 0.1 mM of cholesterol, 1 mM of egg lecithin, 15 mg/ml of BSA, 2 mM of Tris HCl, 100 mM of sodium chloride, 1 mM of calcium chloride and triolein as the substrate was added the compound of formula I dissolved in ethanol or dimethyl sulfoxide (10% of the emulsion volume) and the reaction was started by the addition of 100 μg (175 U) of pig pancreas lipase. The pH was held at 8 during the reaction by the addition of sodium hydroxide solution. The IC50 was calculated from the consumption of sodium hydroxide solution determined during 10 minutes. The IC50 was that concentration at which the lipase activity was inhibited to half of the maximum.

mice = experiment: Acute toxicity after single oral administration to mice; type: in vivo
[1] = pig pancreas lipase 100 μg (175 U), triolein substrate, pH 8, 10 minutes, concentration at which lipase activity was inhibited to half of the maximum, read-out: IC50 (converted)

Structure (SMILES)	IC50 (pig pancreas lipase; [1]) [nM]	IC50 (pig pancreas lipase) [nM]	Toxicity (dose of the compound at which the animal survives) (mice) [mg/kg p.o.]
CCCCCCCCCCCC(C[C@@H]1OC(=O)[C@H]1CCCCCC)OC(=O)[C@@H](N)CC(C)C (relative stereo) [Example 7, leucine 1-[(trans-3-hexyl-4-oxo-2-oxetanyl)methyl]dodecyl ester]	32100		
CCCCCCCCCCCCCCCCC[C@@H](C[C@@H]1OC(=O)[C@H]1CC)OC(=O)[C@H](CC(C)C)NC=O [Example 4, 1, N-formyl-(S)-leucine (S)-1[[(2S,3S)-3-ethyl-4-oxo-2-oxetanyl]methyl]octadecyl ester]	210		
CCCCCCCC/C=C\CCCCCCC[C@@H](C[C@@H]1OC(=O)[C@H]1CC)OC(=O)[C@H](CC(C)C)NC=O (single isomer, unassigned) [Example 2, 23a]		67.1	2000
CCCCCC[C@@H]1C(=O)O[C@H]1CC(CCCC)OC(=O)[C@H](CC(C)C)NC=O (mixture of isomers) [Example 5, N-formyl-L-leucine 1-[(trans-3-hexyl-4-oxo-2-oxetanyl]-methyl]pentyl ester]	503		
C=CCC[C@@H](C[C@@H]1OC(=O)[C@H]1CCCCCCCCCC)OC(=O)[C@H](CC(C)C)NC=O [Example 2, 34, N-formyl-L-leucine (S)-1-[[(2S,3S)-3-decyl-4-oxo-2-oxetanyl]methyl]-4-pentenyl ester]		288	4000
C=CC[C@@H]1C(=O)O[C@H]1CC(CCCCCCCCCCC)OC(=O)[C@H](CC(C)C)NC=O (mixture of isomers) [Example 2, 14, N-formyl-L-leucine 1-[(trans-3-allyl-4-oxo-2-oxetanyl)methyl]dodecyl ester]		33.2	5000
CCCCCC[C@@H]1C(=O)O[C@H]1C[C@H](CCCC)OC(=O)[C@H](Cc1ccccc1)NC=O [Example 6, 2, N-formyl-L-phenylalanine (S)-1-[[(2S,3S)-3-hexyl-4-oxo-2-oxetanyl]methyl]-4-pentyl ester]		2320	
CCCCCCCCCCC[C@H](O)C[C@@H]1OC(=O)[C@H]1CCCCCC (relative stereo) [Example 9 F.2., rac-trans-3-hexyl-4-(2-hydroxytridecyl)-2-oxetanone(2S,3S,4S:2R,3R,4R)]	240000		
CCCCCCCCCCCC(C[C@@H]1OC(=O)[C@H]1CC)OC(=O)[C@H](CC(C)C)NC=O (single isomer, unassigned) [Example 2, 13a, N-formyl-L-leucine 1-[(trans-3-ethyl-4-oxo-2-oxetanyl)methyl]dodecyl ester]	15.9		
CC[C@@H]1C(=O)O[C@H]1C[C@@H](OC(=O)[C@H](CC(C)C)NC=O)c1ccc(Oc2ccccc2)cc1 [Example 2, 25a, N-formyl-(S)-leucine (R)-α-[[(2S,3S)-3-ethyl-4-oxo-2-oxetanyl]methyl]-p-phenoxybenzyl ester]	22		
CCCCC/C=C\C/C=C\CCCCCCC[C@@H](C[C@@H]1OC(=O)[C@H]1CC)OC(=O)[C@H](CC(C)C)NC=O [Example 2, 21]	38.5		
